Experiments:
Type in all cases: in vivo
ABUTH [1] = assay: Post-emergence herbicidal action; conditions: 320 g/ha, assessed after about 3 weeks
Method: (§1) Seeds of monocotyledonous and dicotyledonous weed and crop plants are laid out in sandy loam soil in wood-fiber pots, covered with soil and cultivated in a greenhouse under good growth conditions. 2 to 3 weeks after sowing, the test plants are treated at the one-leaf stage. The compounds of the invention, formulated in the form of wettable powders (WP) or as emulsion concentrates (EC), are then sprayed onto the green parts of the plants in the form of an aqueous suspension or emulsion at a water application rate equating to 600 to 800 l/ha, with addition of 0.2% wetting agent. After the test plants have been left to stand in the greenhouse under optimal growth conditions for about 3 weeks, the action of the preparations is assessed visually in comparison to untreated controls (herbicidal action in percent (%): 100% activity=the plants have died, 0% activity=like control plants). […] At the same time, inventive compounds leave Gramineae crops such as barley, wheat, rye, millet/sorghum, corn or rice virtually undamaged when applied post-emergence, even at high active ingredient dosages. In addition, some substances are also harmless to dicotyledonous crops such as soya, cotton, oilseed rape, sugar beet or potatoes. Some of the compounds according to the invention have high selectivity and are therefore suitable for controlling unwanted vegetation in agricultural crops by the post-emergence method. The tables below illustrate, in an exemplary manner, the post-emergence herbicidal action of the compounds according to the invention, the herbicidal activity being stated in percent.

POLCO [2] = assay: Post-emergence herbicidal action; conditions: Table 5, post-emergence (PO), 320 g/ha, assessed after about 3 weeks
Method: as §1

VIOTR [3] = assay: Post-emergence herbicidal action; conditions: Table 5, post-emergence (PO), 320 g/ha, assessed after about 3 weeks
Method: as §1

AMARE [4] = assay: Post-emergence herbicidal action; conditions: 320 g/ha, assessed after about 3 weeks
Method: as §1

STEME = assay: Post-emergence herbicidal action; conditions: 320 g/ha, assessed after about 3 weeks
Method: as §1

ECHCG [5] = assay: Post-emergence herbicidal action; conditions: Table 5, post-emergence (PO), 320 g/ha, assessed after about 3 weeks
Method: as §1

PHBPU = assay: Post-emergence herbicidal action; conditions: Table 5, post-emergence (PO), 320 g/ha, assessed after about 3 weeks
Method: as §1

SETVI [6] = assay: Post-emergence herbicidal action; conditions: 320 g/ha, assessed after about 3 weeks
Method: as §1

ABUTH [7] = assay: Pre-emergence herbicidal action; conditions: 320 g/ha, scored after 3 weeks
Source text: (§2) Seeds of monocotyledonous and dicotyledonous weed plants and crop plants are laid out in sandy loam soil in wood-fiber pots and covered with soil. The compounds of the invention, formulated in the form of wettable powders (WP) or as emulsion concentrates (EC), are then applied to the surface of the covering soil in the form of an aqueous suspension or emulsion at a water application rate equating to 600 to 800 I/ha, with addition of 0.2% wetting agent. After the treatment, the pots are placed in a greenhouse and kept under good growth conditions for the trial plants. The damage to the test plants is scored visually after a test period of 3 weeks by comparison with untreated controls (herbicidal activity in percent (%): 100% activity=the plants have died, 0% activity=like control plants).
(§3) At the same time, inventive compounds leave Gramineae crops such as barley, wheat, rye, millet/sorghum, corn or rice virtually undamaged when applied pre-emergence, even at high active ingredient dosages. In addition, some substances are also harmless to dicotyledonous crops such as soya, cotton, oilseed rape, sugar beet or potatoes. […] The tables below illustrate, in an exemplary manner, the pre-emergence herbicidal action of the compounds according to the invention, the herbicidal activity being stated in percent.

AMARE [8] = assay: Pre-emergence herbicidal action; conditions: 320 g/ha, scored after 3 weeks
Source text: as §2, §3

ALOMY = assay: Pre-emergence herbicidal action; conditions: 320 g/ha, scored after 3 weeks
Source text: as §2, §3

ECHCG [9] = assay: Pre-emergence herbicidal action; conditions: 320 g/ha, scored after 3 weeks
Source text: as §2, §3

SETVI [10] = assay: Pre-emergence herbicidal action; conditions: 320 g/ha, scored after 3 weeks
Source text: as §2, §3

POLCO [11] = assay: Pre-emergence herbicidal action; conditions: Table 2, pre-emergence (PE), 320 g/ha, scored after 3 weeks
Source text: as §2, §3

VIOTR [12] = assay: Pre-emergence herbicidal action; conditions: Table 2, pre-emergence (PE), 320 g/ha, scored after 3 weeks
Source text: as §2, §3

SMILES | Herbicidal action against ABUTH (ABUTH [1]; Table 5, post-emergence (PO)) | Herbicidal action against POLCO (POLCO [2]) | Herbicidal action against VIOTR (VIOTR [3]) | Herbicidal action against AMARE (AMARE [4]; Table 5, post-emergence (PO)) | Herbicidal action against STEME (STEME; Table 5, post-emergence (PO)) | Herbicidal action against ECHCG (ECHCG [5]) | Herbicidal action against PHBPU (PHBPU) | Herbicidal action against SETVI (SETVI [6]; Table 5, post-emergence (PO)) | Herbicidal action against ABUTH (ABUTH [7]; Table 3, pre-emergence (PE)) | Herbicidal action against AMARE (AMARE [8]; Table 3, pre-emergence (PE)) | Herbicidal action against ALOMY (ALOMY; Table 3, pre-emergence (PE)) | Herbicidal action against ECHCG (ECHCG [9]; Table 3, pre-emergence (PE)) | Herbicidal action against SETVI (SETVI [10]; Table 3, pre-emergence (PE)) | Herbicidal action against ABUTH (ABUTH [1]; Table 6, post-emergence (PO)) | Herbicidal action against AMARE (AMARE [4]; Table 6, post-emergence (PO)) | Herbicidal action against STEME (STEME; Table 6, post-emergence (PO)) | Herbicidal action against SETVI (SETVI [6]; Table 6, post-emergence (PO)) | Herbicidal action against ABUTH (ABUTH [7]; Table 2, pre-emergence (PE)) | Herbicidal action against POLCO (POLCO [11]) | Herbicidal action against VIOTR (VIOTR [12]) | also measured
Nc1c(F)c(-c2ccc3sccc3c2)nc(C(=O)OCc2ccc(F)cc2)c1Cl [Example I-29] | 80% | 90% | 50% | 100% | 80% | 90% | 40% | 80% | 70% | 100% | 80% | 80% | 70% | – | – | – | – | – | – | – | –
Nc1cc(-c2ccc3sccc3c2)nc(C(=O)OCc2ccc(Cl)cc2)c1Cl [Example I-19] | 90% | 0% | 80% | 100% | 100% | 100% | 100% | 80% | 70% | 100% | 60% | 50% | 50% | – | – | – | – | – | – | – | –
COc1c(F)ccc(COC(=O)c2nc(-c3ccc4ccsc4c3)cc(N)c2Cl)c1F [Example I-08] | – | – | – | – | – | – | – | – | – | – | – | – | – | 100% | 100% | 100% | 70% | 0% | 100% | 20% | Herbicidal action against AMARE (AMARE [8]; Table 2, pre-emergence (PE)): 100%; Herbicidal action against ALOMY (ALOMY; Table 2, pre-emergence (PE)): 60%; Herbicidal action against ECHCG (ECHCG [9]; Table 2, pre-emergence (PE)): 100%; Herbicidal action against SETVI (SETVI [10]; Table 2, pre-emergence (PE)): 90%
Nc1cc(-c2ccc3occc3c2)nc(C(=O)OCc2c(F)cc(F)cc2F)c1Cl [Example I-20] | – | – | – | – | – | – | – | – | – | – | – | – | – | 100% | 100% | 100% | 100% | 50% | 100% | 40% | Herbicidal action against AMARE (AMARE [8]; Table 2, pre-emergence (PE)): 100%; Herbicidal action against ALOMY (ALOMY; Table 2, pre-emergence (PE)): 70%; Herbicidal action against ECHCG (ECHCG [9]; Table 2, pre-emergence (PE)): 100%; Herbicidal action against SETVI (SETVI [10]; Table 2, pre-emergence (PE)): 100%
Nc1c(Cl)c(C(=O)OCc2cccc(C(F)(F)F)c2)nc(Cl)c1-c1ccc2sccc2c1 [Example I-21, 3-(trifluoromethyl)benzyl 4-amino-6-chloro-(1-benzothiophen-5-yl)-3-chloropyridine-2-carboxylate] | 90% | 40% | 80% | 100% | 90% | 90% | 80% | 90% | 50% | 60% | 40% | 100% | 80% | – | – | – | – | – | – | – | –
Nc1cc(-c2ccc3ccsc3c2)nc(C(=O)OCc2ccc(F)cc2F)c1Cl [Example I-12] | – | – | – | – | – | – | – | – | – | – | – | – | – | 90% | 100% | 100% | 100% | 20% | 100% | 20% | Herbicidal action against AMARE (AMARE [8]; Table 2, pre-emergence (PE)): 100%; Herbicidal action against ALOMY (ALOMY; Table 2, pre-emergence (PE)): 70%; Herbicidal action against ECHCG (ECHCG [9]; Table 2, pre-emergence (PE)): 100%; Herbicidal action against SETVI (SETVI [10]; Table 2, pre-emergence (PE)): 90%
Nc1cc(-c2ccc3occc3c2)nc(C(=O)OCc2cc(F)c(F)cc2F)c1Cl [Example I-06] | – | – | – | – | – | – | – | – | – | – | – | – | – | 100% | 100% | 100% | 90% | 20% | 100% | 60% | Herbicidal action against AMARE (AMARE [8]; Table 2, pre-emergence (PE)): 100%; Herbicidal action against ALOMY (ALOMY; Table 2, pre-emergence (PE)): 80%; Herbicidal action against ECHCG (ECHCG [9]; Table 2, pre-emergence (PE)): 100%; Herbicidal action against SETVI (SETVI [10]; Table 2, pre-emergence (PE)): 90%
Nc1cc(-c2ccc3occc3c2)nc(C(=O)OCc2ccc(C(F)(F)F)cc2)c1Cl [Example I-36] | – | – | – | – | – | – | – | – | – | – | – | – | – | 100% | 100% | 100% | 80% | 90% | 90% | 0% | Herbicidal action against AMARE (AMARE [8]; Table 2, pre-emergence (PE)): 100%; Herbicidal action against ALOMY (ALOMY; Table 2, pre-emergence (PE)): 50%; Herbicidal action against ECHCG (ECHCG [9]; Table 2, pre-emergence (PE)): 90%; Herbicidal action against SETVI (SETVI [10]; Table 2, pre-emergence (PE)): 90%
Nc1cc(-c2ccc3ccsc3c2)nc(C(=O)OCc2ccc(Cl)cc2)c1Cl [Example I-14] | 100% | 100% | 70% | 100% | 100% | 90% | 80% | 90% | 50% | 100% | 30% | 100% | 80% | – | – | – | – | – | – | – | –
COc1c(F)ccc(COC(=O)c2nc(-c3ccc4sccc4c3)cc(N)c2Cl)c1F [Example I-22] | 100% | 90% | 80% | 100% | 100% | 90% | 80% | 100% | 20% | 100% | 50% | 90% | 90% | – | – | – | – | – | – | – | –
Nc1c(F)c(-c2ccc3ccsc3c2)nc(C(=O)OCc2c(F)cc(F)cc2F)c1Cl [Example I-55] | 60% | 90% | 10% | 100% | 90% | 90% | 0% | 90% | – | – | – | – | – | – | – | – | – | – | – | – | Herbicidal action against AMARE (AMARE [8]; Table 4, pre-emergence (PE)): 100%; Herbicidal action against ECHCG (ECHCG [9]; Table 4, pre-emergence (PE)): 40%
Nc1cc(-c2ccc3ncsc3c2)nc(C(=O)OCc2cccc(F)c2)c1Cl [Example I-41] | 100% | 0% | 90% | 90% | 100% | 100% | 70% | 100% | – | – | – | – | – | – | – | – | – | – | – | – | Herbicidal action against AMARE (AMARE [8]; Table 4, pre-emergence (PE)): 50%; Herbicidal action against ECHCG (ECHCG [9]; Table 4, pre-emergence (PE)): 90%
Nc1cc(-c2ccc3sccc3c2)nc(C(=O)OCc2cccc(Cl)c2)c1Cl [Example I-40] | 90% | 40% | 60% | 100% | 80% | 90% | 80% | 90% | – | – | – | – | – | – | – | – | – | – | – | – | Herbicidal action against AMARE (AMARE [8]; Table 4, pre-emergence (PE)): 80%; Herbicidal action against ECHCG (ECHCG [9]; Table 4, pre-emergence (PE)): 10%

Source: patent publication US20200187499A1, “SUBSTITUTED BENZYL-4-AMINOPICOLINIC ESTERS AND PYRIMIDINO-4-CARBOXYLIC ESTERS, METHODS FOR THE PRODUCTION THEREOF, AND USE THEREOF AS HERBICIDES AND PLANT GROWTH REGULATORS” (Bayer CropScience Aktiengesellschaft, priority 2017, published 2020)
